Consider six molecules from patent US5516790A, “Synthesis and application of alkyl-substituted dibenzofurans as antitumorigenic agents” (Texas A&M University System Technology Licensing Office, priority 1994, dated 1996).

One data set has as its system 160-kDa protein. The class given is cell-based, human. How it is done: (§1) On day 0, the media was removed and the cells were rinsed two times with PBS. […] The cells were allowed to incubate for 48 h. […] After 6 h, the media was removed, 10 μl was counted and the remaining media was used for analysis of secreted proteins.
(§2) The secreted proteins were analyzed by sodium dodecyl sulfate (SDS) polyacrylamide gel electrophoresis; 30 μl of the media was mixed with an equal volume of buffer containing SDS, β-mercaptoethanol, glycerol, Tris and bromophenol blue. The samples were heated for 2 minutes in a boiling water bath and 50 μl of each sample was loaded onto a 1.5 mm thick 12% acrylamide slab gel (containing 0.075% bisacrylamide) with a 3% stacking gel (containing 0.15% bisacrylamide). The gels were run at […] overnight and processed for fluorography (using Enhance: Dupont) and exposed to Kodak X-OMAT film for 10 days at -80° C. The molecular weights of the proteins were estimated by their mobility relative to a set of standard proteins with known molecular weights.
(§3) The incorporation of ^35 S-methionine into the 34-kDa, 52-kDa and 160-kDa proteins was estimated by scanning the films using a Zeineh Soft Laser Scanning Densitometer (model SLR-20/10) from Biomedical Instruments,Inc. The percentage of the area of the scans due to the particular protein was then compared between the experimental and control samples and the results are presented as means ± SD for at least three samples per treatment group.

The test system of another data set is 34-kDa protein. In kind it is cell-based, human. How it is done:
as §1, §2, §3

Another data set concerns 52-kDa protein. In kind it is cell-based, human. To be noted: mcf-7 cells, 48 h, 0.001 µM. How it is done: as §1, §2, §3
The test system of another data set is female rat uterus. The data set is described as follows: Antiestrogenic effect on uterine wet weight, immature female Sprague-Dawley rats (Example 8). The class given is in vivo.
The next data set has as its system estrogen receptor (ER). The data set is described as follows: Uterine estrogen receptor levels, hydroxyapatite assay (Example 8). In kind it is in vivo, female Sprague-Dawley rats. How it is done: A second group of animals was similarly treated with corn oil, TCDD, MCDF, or TCDD plus MCDF, all administered in corn oil at 10 ml/kg and terminated 72 hours later.
(§4) The animals were terminated by cervical dislocation. Livers were perfused with ice-cold TEDG buffer (10 mM Tris-HCl, 1.5 mM EDTA-4Na, 1 mM dithiothreitol, 10% glycerol (v/v), pH 7.4). Following perfusion in situ, livers were removed, weighed, and homogenized in ice-cold TEDG buffer. Uteri were also removed, weighed, and homogenized in ice-cold buffer. The homogenates were then centrifuged at 800×g ([…]) for 15 minutes and the nuclear pellets were stored at -80° C. The supernatants were further centrifuged at 180,000× g for 1.5 hours. The cytosolic supernatant was also stored at -80° C. Estrogen and progesterone receptor levels were determined within 7 days.
(§5) Estrogen (ER) and progesterone (PR) receptor levels were determined by the hydroxyapatite assay as described by Clark et al. (J. Steroid Biochem. 16:323-328, 1982) and incorporated herein by reference. […] Following the incubations, samples were counted and specific binding was calculated by subtraction of nonspecific from total binding. Assuming one steroid molecule binds to one estrogen/progesterone receptor, the number of moles of receptor can be calculated given the specific activity of the radioligand. The data presented in Tables 1 through 6 are means ± SD using at least four animals per treatment group. Significant differences were determined by analysis of variance.

For data set [1], the system named is progesterone receptor (PR). The data set is described as follows: Uterine progesterone receptor levels, hydroxyapatite assay (Example 8). In kind it is in vivo, female Sprague-Dawley rats. How it is done:
as §4, §5

[2] abbreviates: 17β-estradiol alone, 1 nM, 2880 min.
[3] abbreviates: Table 9, 17β-estradiol alone (1 nM), 2880 min.
Setting [4] is: Table 2: 50 μmol/kg + E-2 (2 × 10 μg/rat).
Setting [5] is: Table 2: compound alone, 50 μmol/kg (17β-estradiol: 2 × 10 μg/rat).
Where [6] appears, read: dose-response, 2 μmol/kg + 17β-estradiol (2 × 10 μg/rat).
Where [7] appears, read: dose-response, 10 μmol/kg + 17β-estradiol (2 × 10 μg/rat).
Setting [8] is: dose-response, 25 μmol/kg + 17β-estradiol (2 × 10 μg/rat).
The mark [9] stands for this setting: dose-response, 50 μmol/kg + 17β-estradiol (2 × 10 μg/rat).
The mark [10] stands for this setting: Table 3: 50 μmol/kg + E-2 (2 × 10 μg/rat).
Where [11] appears, read: Table 3: compound alone, 50 μmol/kg (17β-estradiol: 2 × 10 μg/rat).
Where [12] appears, read: 150 μmol/kg + E-2 (2 × 10 μg/rat), run B.
Where [13] appears, read: compound alone, 150 μmol/kg (17β-estradiol: 2 × 10 μg/rat), run B.
[14] abbreviates: 150 μmol/kg + E-2 (2 × 10 μg/rat), run A.
[15] abbreviates: compound alone, 150 μmol/kg (17β-estradiol: 2 × 10 μg/rat), run A.
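Throughout, for Secreted 160-kDa protein: MCF-7 human breast cancer cells.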
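Throughout, for Secreted 34-kDa protein: MCF-7 human breast cancer cells.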

On to `C[C@]12CC[C@@H]3c4ccc(O)cc4CC[C@H]3[C@@H]1CC[C@@H]2O` [17β-Estradiol], for which the “Secreted 160-kDa protein” value in the data set on 160-kDa protein (setting [2]) is recorded as 371 ± 27.1% of the values for control. Besides, the “Protein Secretion, 160-kDa” value with 160-kDa protein (setting [3]) is 228 % of Control. In the data set on 160-kDa protein (mcf-7 cells, 48 h, 0.001 µM), the “increase in secretion of the 160-kDa protein” value is reported as 3.81 fold. The “Secreted 34-kDa protein” value in the data set on 34-kDa protein (setting [2]) is 282 ± 17.6% of the values for control. The “Protein Secretion, 34-kDa” value with 34-kDa protein (setting [3]) is listed as 201 % of Control. For the same molecule, in the data set with 34-kDa protein (mcf-7 cells, 48 h, 0.001 µM), the “increase in secretion of the 34-kDa protein” value is listed as 3.72 fold. In the data set on 52-kDa protein, the “increase in secretion of the 52-kDa protein” value is reported as 4.97 fold.
On to `Cc1cc(Cl)cc2c1oc1c(Cl)c(Cl)c(Cl)cc12` [6-Methyl-2,3,4,8-tetraCDF, 6-Methyl-2,3,4,8-tetrachlorodibenzofuran], for which the “Uterine Wet Weight” value in the data set on female rat uterus (setting [4]) was found to be 0.163 ± 0.019 % body wt; in the data set with female rat uterus (setting [5]) it was 0.109 ± 0.020 % body wt; in the data set on female rat uterus (setting [6]), 0.268 ± 0.044 % body wt; in the data set with female rat uterus (setting [7]), 0.221 ± 0.020 % body wt; in the data set with female rat uterus (setting [8]), 0.191 ± 0.006 % body wt; in the data set with female rat uterus (setting [9]), 0.158 ± 0.004 % body wt. Moreover, the “Estrogen Receptor Levels, Cytosolic” value with estrogen receptor (ER) (setting [4]) was found to be 176.3 ± 20.3 fmol/mg protein; in the data set with estrogen receptor (ER) (setting [5]), 96.2 ± 11.2 fmol/mg protein; with estrogen receptor (ER) (setting [6]), 86.7 ± 4.3 fmol/mg protein; in the data set on estrogen receptor (ER) (setting [7]), 83.9 ± 4.2 fmol/mg protein; in the data set with estrogen receptor (ER) (setting [8]), 75.1 ± 3.8 fmol/mg protein; in the data set on estrogen receptor (ER) (setting [9]) it was 71.0 ± 3.6 fmol/mg protein. Besides, the “Estrogen Receptor Levels, Nuclear” value was found to be 69.9 ± 9.4 fmol/mg protein in the data set on estrogen receptor (ER) (setting [4]); 31.3 ± 5.6 fmol/mg protein with estrogen receptor (ER) (setting [5]); 64.7 ± 3.9 fmol/mg protein in the data set with estrogen receptor (ER) (setting [6]); 53.8 ± 3.2 fmol/mg protein in the data set on estrogen receptor (ER) (setting [7]); 49.3 ± 3.0 fmol/mg protein in the data set on estrogen receptor (ER) (setting [8]); 40.0 ± 2.4 fmol/mg protein with estrogen receptor (ER) (setting [9]). In addition, the “ED40-60 for Inhibition, ERc” value with estrogen receptor (ER) (cotreatment with 17β-estradiol) came to 2 µmol/kg. For the same molecule, the “ED40-60 for Inhibition, ERn” value in the data set on estrogen receptor (ER) (cotreatment with 17β-estradiol) was 2 µmol/kg. Moreover, the “Progesterone Receptor Levels, Cytosolic” value in data set [1] (setting [4]) is listed as 795 ± 52 fmol/mg protein; in data set [1] (setting [5]) it was 625 ± 71 fmol/mg protein; in data set [1] (setting [6]), 1220 ± 85 fmol/mg protein; in data set [1] (setting [7]) it was 970 ± 68 fmol/mg protein; in data set [1] (setting [8]) it was 1000 ± 63 fmol/mg protein; in data set [1] (setting [9]) it was 885 ± 53 fmol/mg protein. Moreover, the “Progesterone Receptor Levels, Nuclear” value was determined as 1081 ± 131 fmol/mg protein in data set [1] (setting [4]); 457 ± 58 fmol/mg protein in data set [1] (setting [5]); 925 ± 74 fmol/mg protein in data set [1] (setting [6]); 765 ± 61 fmol/mg protein in data set [1] (setting [7]); 645 ± 52 fmol/mg protein in data set [1] (setting [8]); 450 ± 36 fmol/mg protein in data set [1] (setting [9]). Besides, the “ED40-60 for Inhibition, PRc” value in data set [1] (cotreatment with 17β-estradiol) was 2 µmol/kg. Besides, in data set [1] (cotreatment with 17β-estradiol), the “ED40-60 for Inhibition, PRn” value came out at 10 µmol/kg.
Consider `Cc1cc2oc3cc(Cl)c(Cl)cc3c2cc1Cl` [7-Methyl-2,3,-triCDF, 7-methyl-2,3,8-trichlorodibenzofuran], for which the “Uterine Wet Weight” value in the data set with female rat uterus (setting [10]) is listed as 0.255 ± 0.017 % body wt; with female rat uterus (setting [11]) it was 0.102 ± 0.011 % body wt. The “Estrogen Receptor Levels, Cytosolic” value in the data set with estrogen receptor (ER) (setting [10]) was 94.2 ± 4.71 fmol/mg protein; in the data set on estrogen receptor (ER) (setting [11]) it was 72.9 ± 3.7 fmol/mg protein. Moreover, the “Estrogen Receptor Levels, Nuclear” value amounted to 48.1 ± 2.4 fmol/mg protein with estrogen receptor (ER) (setting [10]) and 35.2 ± 1.8 fmol/mg protein in the data set with estrogen receptor (ER) (setting [11]). Also, the figures for the “Progesterone Receptor Levels, Cytosolic” value in data set [1] (setting [10]) and in data set [1] (setting [11]) were 924 ± 74 fmol/mg protein and 501 ± 35 fmol/mg protein, respectively. Also, the “Progesterone Receptor Levels, Nuclear” value amounted to 554 ± 39 fmol/mg protein in data set [1] (setting [10]) and 364 ± 26 fmol/mg protein in data set [1] (setting [11]).
For `CCc1cc(Cl)cc2c1oc1cc(Cl)cc(Cl)c12` [6-Ethyl-1,3,8-triCDF], the “Uterine Wet Weight” value in the data set on female rat uterus (setting [12]) is 0.226 ± 0.013 % body wt; with female rat uterus (setting [13]) it was 0.128 ± 0.007 % body wt. The “Estrogen Receptor Levels, Cytosolic” value was found to be 104.3 ± 77.1 fmol/mg protein with estrogen receptor (ER) (setting [12]) and 98.4 ± 5.5 fmol/mg protein with estrogen receptor (ER) (setting [13]). The results for the “Estrogen Receptor Levels, Nuclear” value with estrogen receptor (ER) (setting [12]) and with estrogen receptor (ER) (setting [13]) were 34.9 ± 1.8 fmol/mg protein and 33.9 ± 1.7 fmol/mg protein, respectively. Moreover, the entries for the “Progesterone Receptor Levels, Cytosolic” value in data set [1] (setting [12]) and in data set [1] (setting [13]) were 1601 ± 121 fmol/mg protein and 688 ± 49 fmol/mg protein, respectively. Moreover, the “Progesterone Receptor Levels, Nuclear” value is 277 ± 19 fmol/mg protein in data set [1] (setting [12]) and 243 ± 17 fmol/mg protein in data set [1] (setting [13]).
Consider `Clc1cc(Cl)c2c(c1)oc1c(Cl)cc(Cl)cc12` [1,3,6,8-tetraCDF], for which the figures for the “Uterine Wet Weight” value with female rat uterus (setting [14]) and in the data set on female rat uterus (setting [15]) were 0.187 ± 0.020 % body wt and 0.123 ± 0.004 % body wt, respectively. Further, the results for the “Estrogen Receptor Levels, Cytosolic” value in the data set on estrogen receptor (ER) (setting [14]) and in the data set with estrogen receptor (ER) (setting [15]) were 75.5 ± 17.3 fmol/mg protein and 55.2 ± 5.6 fmol/mg protein, respectively. In addition, the “Estrogen Receptor Levels, Nuclear” value in the data set with estrogen receptor (ER) (setting [14]) worked out at 16.1 ± 2.3 fmol/mg protein; with estrogen receptor (ER) (setting [15]) it was 18.5 ± 3.8 fmol/mg protein. In addition, the “Progesterone Receptor Levels, Cytosolic” value in data set [1] (setting [14]) is given as 798 ± 83 fmol/mg protein; in data set [1] (setting [15]), 571 ± 49 fmol/mg protein. Also, the “Progesterone Receptor Levels, Nuclear” value is 291 ± 71 fmol/mg protein in data set [1] (setting [14]) and 199 ± 46 fmol/mg protein in data set [1] (setting [15]).
Take `Cc1cc(Cl)cc2c1oc1cc(Cl)c(Cl)cc12` [6-Methyl-2,3,8-triCDF, 6-methyl-2,3,8-trichlorodibenzofuran]: the entries for the “Uterine Wet Weight” value in the data set on female rat uterus (setting [4]) and with female rat uterus (setting [5]) were 0.204 ± 0.020 % body wt and 0.125 ± 0.024 % body wt, respectively. For the same molecule, the “Estrogen Receptor Levels, Cytosolic” value in the data set with estrogen receptor (ER) (setting [4]) was 105.3 ± 12.2 fmol/mg protein; in the data set with estrogen receptor (ER) (setting [5]) it was 84.3 ± 9.3 fmol/mg protein. The “Estrogen Receptor Levels, Nuclear” value is on record as 70.8 ± 8.1 fmol/mg protein in the data set with estrogen receptor (ER) (setting [4]) and 55.8 ± 7.1 fmol/mg protein in the data set with estrogen receptor (ER) (setting [5]). Also, the “Progesterone Receptor Levels, Cytosolic” value in data set [1] (setting [4]) is given as 1062 ± 121 fmol/mg protein; in data set [1] (setting [5]), 356 ± 65 fmol/mg protein. The “Progesterone Receptor Levels, Nuclear” value in data set [1] (setting [4]) was determined as 622 ± 71 fmol/mg protein; in data set [1] (setting [5]), 395 ± 52 fmol/mg protein.
